≈ marks a conversion by molar mass, not a printed value.
Key:
[1] = target: T1, Estrogen receptor (Homo sapiens) (UniProt P03372); assay: Agonist activity at estradiol receptor (unknown origin) at 10 uM relative to control
T1 sequence (whole entry): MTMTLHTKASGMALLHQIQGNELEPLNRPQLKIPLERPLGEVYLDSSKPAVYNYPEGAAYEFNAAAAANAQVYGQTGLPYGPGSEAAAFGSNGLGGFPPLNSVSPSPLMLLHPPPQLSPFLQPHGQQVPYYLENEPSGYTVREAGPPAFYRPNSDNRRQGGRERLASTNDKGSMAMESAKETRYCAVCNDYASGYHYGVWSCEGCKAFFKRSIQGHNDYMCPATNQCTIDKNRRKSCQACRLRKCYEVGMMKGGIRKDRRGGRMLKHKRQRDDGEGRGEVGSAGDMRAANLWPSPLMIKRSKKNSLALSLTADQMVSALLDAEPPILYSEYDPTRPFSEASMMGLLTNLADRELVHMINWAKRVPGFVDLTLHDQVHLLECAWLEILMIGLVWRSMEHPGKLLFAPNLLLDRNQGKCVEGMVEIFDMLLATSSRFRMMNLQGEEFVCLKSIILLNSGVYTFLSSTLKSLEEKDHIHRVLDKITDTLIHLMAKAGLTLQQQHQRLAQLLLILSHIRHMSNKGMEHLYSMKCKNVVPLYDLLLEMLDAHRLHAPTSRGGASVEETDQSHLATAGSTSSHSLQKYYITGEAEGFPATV

[2] = species: Homo sapiens; assay: Chaperone activity at GCase L444P GBA gene mutant in human fibroblasts derived from Gaucher patient assessed as increase in GPN-induced reduction of calcium release using Fluo-8AM based fluorescence assay relative to control
[3] = Chaperone activity at GCase L444P GBA gene mutant in human fibroblasts derived from Gaucher patient assessed as increase in GPN-induced reduction of calcium release using Fluo-8AM based fluorescence assay
[4] = target: T2, Lysosomal acid glucosylceramidase (Homo sapiens) (UniProt P04062); assay: Chaperone activity at GCase in wild-type human fibroblasts assessed as increase in GPN-induced reduction of calcium release using Fluo-8AM based fluorescence assay relative to control
T2 sequence (whole entry): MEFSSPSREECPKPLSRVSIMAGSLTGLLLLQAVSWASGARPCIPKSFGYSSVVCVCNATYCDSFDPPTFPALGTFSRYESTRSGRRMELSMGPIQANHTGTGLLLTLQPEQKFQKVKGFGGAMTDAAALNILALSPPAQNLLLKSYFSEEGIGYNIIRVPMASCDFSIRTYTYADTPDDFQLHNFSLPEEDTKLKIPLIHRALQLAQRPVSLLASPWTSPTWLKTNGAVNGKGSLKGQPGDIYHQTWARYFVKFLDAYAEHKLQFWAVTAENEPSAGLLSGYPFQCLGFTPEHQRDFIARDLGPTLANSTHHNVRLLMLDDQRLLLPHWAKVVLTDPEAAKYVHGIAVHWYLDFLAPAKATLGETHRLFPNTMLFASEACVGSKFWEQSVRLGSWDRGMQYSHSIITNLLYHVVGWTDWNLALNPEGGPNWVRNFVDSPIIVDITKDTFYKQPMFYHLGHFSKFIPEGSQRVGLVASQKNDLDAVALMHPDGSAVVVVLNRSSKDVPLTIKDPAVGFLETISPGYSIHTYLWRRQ

[5] = human, microsomes
[6] = mouse, microsomes
Description: Metabolic stability in mouse liver microsomes assessed as half life

[7] = Aqueous solubility of compound in PBS; type: physicochemical; conditions: buffer

SMILES	Activity [1] [%]	Emax [2] [%]	EC50 [3] [µM]	Emax [4] [%]	t1/2 [5] [min]	t1/2 [6] [min]	solubility [7] [µM]
CC/C(=C/c1ccc(OCCN(C)C)cc1)c1ccc(C(N)=O)cc1	46	0	> 20	–	–	–	–
CC(C)CC(C(=O)c1ccc(OCCN(C)C)cc1)c1ccccc1C(C)C (configuration not stated)	39	406	–	148	–	–	–
C=Cc1ccccc1C(CCCC)C(=O)c1ccc(OCCN(C)C)cc1 (configuration not stated)	100	177	2.3	–	–	–	–
CCC(Cc1ccccc1)c1ccc(OCCN(C)C)cc1 (configuration not stated)	75	0	> 20	–	–	–	–
CC/C(=C\c1ccccc1)c1ccc(OCCN(C)C)cc1	43	53	3	–	–	–	–
CC/C(=C/c1ccc(OCCN(C)C)cc1)c1ccc([N+](=O)[O-])cc1	–	0	> 20	–	–	–	–
CC/C(=C/c1ccc(OCCN(C)C)cc1)c1ccc(N)cc1	25	0	> 20	–	–	–	–
CCCC/C(=C\c1ccc(OCCN(C)C)cc1)c1ccccc1	98	56	7.2	–	–	–	–
CC/C(=C/c1ccc(OCCN(C)C)cc1)Cc1ccccc1	47	40	2.3	–	–	–	–
CCC(Cc1ccc(OCCN(C)C)cc1)c1ccccc1 (configuration not stated)	43	154	4.3	–	–	–	–
CC/C(=C\c1ccc(OCCN(C)C)cc1)Cc1ccccc1	69	67	3.1	–	–	–	–
C/C=C/c1ccccc1C(CCCC)C(=O)c1ccc(OCCN(C)C)cc1 (configuration not stated)	35	257	2.2	109	24.4	9.1	45.2 (≈ 17.2 µg/mL)
CC(C)CCC(C(=O)c1ccc(OCCN(C)C)cc1)c1ccccc1 (configuration not stated)	35	191	3.6	–	–	–	–
CC(C)C(C(=O)c1ccc(OCCN(C)C)cc1)c1ccccc1 (configuration not stated)	–	54	4.4	–	–	–	–
CC/C(=C/c1ccc(OCCN(C)C)cc1)c1ccc(C#N)cc1	32	47	4.3	–	–	–	–
CCCC(CCC)(C(=O)c1ccc(OCCN(C)C)cc1)c1ccccc1	25	60	4	–	–	–	–
CC(C)CC(C(=O)c1ccc(OCCN(C)C)cc1)c1ccccc1C1CC1 (racemic)	0	240	3.1	50	26.7	7.7	31.7 (≈ 12 µg/mL)
CC/C(=C\c1ccc(OCCN(C)C)cc1)c1ccccc1	19	73	5.8	–	–	–	–
CC(C)CC(C(=O)c1ccc(OCCN(C)C)cc1)c1cccc(C(C)C)c1 (configuration not stated)	–	80	1.5	–	–	–	–
CC/C(=C/c1ccc(OCCN(C)C)cc1)c1ccc(F)cc1	46	0	> 20	–	–	–	–
CC/C(=C/c1ccc(OCCN(C)C)cc1)c1ccccc1	35	80	15.5	–	–	–	–
CC/C(=C/c1ccc(OCCN(C)C)cc1)c1ccc(Cl)cc1	70	70	5.4	–	–	–	–
CCCCC(C(=O)c1ccc(OCCN(C)C)cc1)c1ccccc1CC (configuration not stated)	–	138	0.65	–	–	–	–
CC/C(=C(\c1ccccc1)c1ccc(OCCN(C)C)cc1)c1ccccc1	–	148	–	28	–	–	–
CCCCC(C(=O)c1ccc(OCCN(C)C)cc1)c1ccccc1C(C)C (configuration not stated)	45	401	1.4	56	21.6	7.9	49.4 (≈ 18.8 µg/mL)
CCCCCCC(C(=O)c1ccc(OCCN(C)C)cc1)c1ccccc1 (configuration not stated)	5	0	> 20	–	–	–	–
CC(C)CC(C(=O)c1ccc(OCCN(C)C)cc1)c1ccccc1 (configuration not stated)	40	108	0.9	–	–	–	–
CC/C(=C(\c1ccc(I)cc1)c1ccc(OCCN2CCCC2)cc1)c1ccccc1 [IDOXIFENE]	–	48	10.7	–	–	–	–
CCCCC(C(=O)c1ccc(OCCN(C)C)cc1)c1ccccc1 (configuration not stated)	–	0	> 20	–	–	–	–
